Data taken from patent publication US8846929B2, “Substituted-quinoxaline-type piperidine compounds and the uses thereof” (priority 2007, dated 2014).

Molecular target: delta opioid receptor (Homo sapiens (Human), UniProt P41143)
Assay: In vitro delta-opioid receptor binding assay ([3H]-Naltrindole displacement)
Details: not given

Chain of delta opioid receptor (P41143 whole entry): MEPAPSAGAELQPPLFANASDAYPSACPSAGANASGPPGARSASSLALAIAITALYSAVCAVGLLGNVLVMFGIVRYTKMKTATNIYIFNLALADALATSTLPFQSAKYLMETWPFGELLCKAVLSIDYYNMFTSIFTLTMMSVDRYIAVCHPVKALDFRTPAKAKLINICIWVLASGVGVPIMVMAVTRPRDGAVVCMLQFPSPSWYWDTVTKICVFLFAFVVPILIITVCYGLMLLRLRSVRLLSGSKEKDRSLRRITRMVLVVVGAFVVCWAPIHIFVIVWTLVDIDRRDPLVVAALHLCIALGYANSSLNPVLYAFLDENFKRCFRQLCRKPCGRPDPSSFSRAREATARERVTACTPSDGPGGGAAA

In the case of O=C(O)c1nc2ccccc2n(C2CC3CCCC(C2)N3C23CC4CC(CC2C4)C3)c1=O (stereo not drawn) [compound 263, 4-(9-(hexahydro-2,5-methano-pentalen-3a-yl)-9-aza-bicyclo[3.3.1]non-3-yl)-3-oxo-3,4-dihydro-quinoxaline-2-carboxylic acid], the Ki is reported as 526000 nM.

Test system: FCA-induced inflammation of the rat hind paw
Assay: not given
Details: in vivo

O=C(O)c1nc2ccccc2n([C@H]2C[C@H]3CCC[C@@H](C2)N3C2CCCCCCC2)c1=O [compound 241, 4-((endo)-9-cyclooctyl-9-azabicyclo[3.3.1]nonan-3-yl)-3-oxo-3,4-dihydroquinoxaline-2-carboxylic acid] was tested, and the “maximum % reversal of thermal hyperalgesia” value was “about 80%”.

Molecular target: human opioid receptor-like (ORL-1) (Homo sapiens (Human), UniProt P41146)
Assay: In vitro ORL-1 receptor [35S]GTPγS functional assay
Assay type: biochemical
Details: not given

Chain of human opioid receptor-like (ORL-1) (P41146 whole entry): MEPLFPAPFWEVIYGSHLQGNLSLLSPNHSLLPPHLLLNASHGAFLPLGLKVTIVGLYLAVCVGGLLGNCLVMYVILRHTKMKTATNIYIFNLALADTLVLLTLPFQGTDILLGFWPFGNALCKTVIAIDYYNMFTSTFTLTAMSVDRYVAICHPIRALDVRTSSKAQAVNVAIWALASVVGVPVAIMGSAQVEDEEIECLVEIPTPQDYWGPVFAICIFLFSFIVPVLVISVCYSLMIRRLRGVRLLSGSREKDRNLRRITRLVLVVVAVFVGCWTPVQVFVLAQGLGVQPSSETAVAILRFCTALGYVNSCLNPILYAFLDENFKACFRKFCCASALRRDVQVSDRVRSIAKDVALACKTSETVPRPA

Point of comparison: O=C(O)c1nc2ccccc2n(C2CC3CCCC(C2)N3C23CC4CC(CC2C4)C3)c1=O (stereo not drawn) [compound 263, 4-(9-(hexahydro-2,5-methano-pentalen-3a-yl)-9-aza-bicyclo[3.3.1]non-3-yl)-3-oxo-3,4-dihydro-quinoxaline-2-carboxylic acid], EC50 298 ± 26 nM. Against it:
- O=C(O)CC(NC(=O)c1nc2ccccc2n([C@H]2C[C@H]3CC[C@@H](C2)N3C2CCCCCCC2)c1=O)C(=O)O (stereo partly drawn) [compound 310, 2-(4-((endo)-8-cyclooctyl-8-azabicyclo[3.2.1]octan-3-yl)-3-oxo-3,4-dihydroquinoxaline-2-carboxamido)succinic acid] — within 1.5-fold, 419 ± 62 nM
- CONC(=O)c1nc2ccccc2n([C@H]2C[C@H]3CC[C@@H](C2)N3C2CCCCCCC2)c1=O [compound 121] — within error, 265 ± 27 nM
- NC(=O)C1CCN(c2nc3ccccc3n(C3CCN(C4CCCCCCC4)CC3)c2=O)CC1 [compound 29] — 1.6-fold higher, 468 ± 81 nM
- NC(=O)CCNc1nc2ccccc2n(C2CCN(C3CCCCCCC3)CC2)c1=O [compound 47] — within 1.5-fold, 419 ± 12.7 nM
- NC(=O)[C@@H]1CCCN1c1nc2ccccc2n(C2CCN(C3CCCCCCC3)CC2)c1=O [compound 42] — 1.8-fold higher, 543 ± 27 nM
- CC(C)(C)OC(=O)Nc1nc2ccccc2n(C2CCN(C3CCCCCCC3)CC2)c1=O [compound 14, tert-butyl 4-(1-cyclooctylpiperidin-4-yl)-3-oxo-3,4-dihydroquinoxalin-2-ylcarbamate] — 16-fold higher, 4650 ± 238 nM
- CC(=O)N[C@@H]1CCN(c2nc3ccccc3n(C3CCN(C4CCCCCCC4)CC3)c2=O)C1 [compound 37] — within error, 265 ± 31 nM
- COC(=O)[C@@H]1C[C@@H](O)CN1c1nc2ccccc2n(C2CCN(C3CCCCCCC3)CC2)c1=O [compound 28] — 6.3-fold higher, 1880 ± 285 nM
- O=C(O)C1CCCN1C(=O)c1nc2ccccc2n([C@H]2C[C@H]3CC[C@@H](C2)N3C2CCCCCCC2)c1=O (stereo partly drawn) [compound 306, 1-(4-((endo)-8-cyclooctyl-8-azabicyclo[3.2.1]octan-3-yl)-3-oxo-3,4-dihydroquinoxaline-2-carbonyl)pyrrolidine-2-carboxylic acid] — 1.8-fold higher, 548 ± 57 nM
